From publication PMC5056380, “Characterization of WY 14,643 and its Complex with Aldose Reductase” (Scientific Reports, 2016)
Where two headings read alike, the source gives them in different places.

Experiments:
[1] = target: T1, human Aldose reductase (hAR) (Homo sapiens, UniProt P15121); experiment: Fluorescence titration (quenching) of cofactor binding to hAR; conditions: for Kd: 0.5 μM protein
T1 construct: hexa-His (cleaved yes); made in house; host or cells: E. coli BL21
Description: (§1) The fluorescence intensities of hAR decreased gradually when the concentrations of quenchers (i.e. inhibitor and cofactors) were increased. The observed fluorescence data were used for calculating the fluorescence quenching (Q% = (F^0 − F)/F^0) where F is the measured fluorescence and F^0 is the fluorescence in the absence of quenchers.
(§2) Fluorescence titration was performed for the binding of NADPH to hAR at a protein concentration of 0.5 μM in 5 mM sodium phosphate buffer (pH 7.0) containing 100 μM DTT. The titration for NADP^+ binding to hAR was conducted at a protein concentration of 0.5 μM in 10 mM Tris-HCl buffer (pH 9.0) containing 100 μM DTT in 1.4 ml quartz cuvette by measuring fluorescence by SpectraMax M2 (Molecular Device, CA). The concentration of protein•NADP^+/NADPH complexes formed were measured by extensive quenching of protein fluorescence by varying the concentrations of NADP^+/NADPH at excitation and emission wavelengths of 295 and 365 nm, respectively following the procedure described by[43][44]. This method was extended for inhibitor (WY 14,643) binding to enzyme•NADPH complex at protein concentration of 0.5 μM in 5 mM sodium phosphate buffer (pH 7.0) containing 100 μM DTT by keeping saturated fixed 60 μM concentration of NADPH and by varying the concentrations of WY 14,643. The binding of inhibitor (WY 14,643) to enzyme•NADP^+ complex was measured at 0.5 μM protein concentration in 10 mM Tris-HCl buffer (pH 9.0) containing 100 μM DTT by keeping saturated fixed 60 μM concentration of NADP^+ and varying the WY 14,643. The concentrations of enzyme•NADP^+/NADPH•inhibitor complex formed were measured by quenching of fluorescence protein•NADP^+/NADPH complexes with excitation and emission wavelengths 295 and 365 nm, respectively.
The methodology described by van de Weert 2010 was followed in the binding constant determination. The fractional saturation (α) of protein by cofactors (NADP^+/NADPH) and by inhibitor (WY 14,643) binding to protein can be expressed in the form of fluorescence as follows;
The binding dissociation constants and stoichiometry for the binding of quenchers (cofactors and inhibitor) to protein were calculated by non-linear fitting to the experimental fluorescence data and results are shown in Table 1.

[2] = target: T1, human Aldose reductase (hAR); design: method as in PMID 17194029; conditions: cited from earlier work
hAR•NADP^+ = target: T2, hAR•NADP^+ (Homo sapiens, UniProt P15121); experiment: Fluorescence titration of inhibitor binding to the hAR•NADP^+ binary complex; conditions: 60 μM NADP^+, 10 mM Tris-HCl pH 9.0
T2 construct: hexa-His (cleaved yes); made in house; host or cells: E. coli BL21
Description: as §1
as §2, with “This method was extended for inhibitor (WY 14,643) binding to enzyme•NADPH complex at protein concentration of 0.5 μM in 5 mM sodium phosphate buffer (pH 7.0) containing 100 μM DTT by keeping saturated fixed 60 μM concentration of NADPH and by varying the concentrations of WY 14,643.” left out, “The concentrations of enzyme•NADP^+/NADPH•inhibitor complex formed were measured by quenching of fluorescence protein•NADP^+/NADPH complexes with excitation and emission wavelengths 295 and 365 nm, respectively.” left out

rat livers = system: rat livers; design: method as in PMID 195342; conditions: cited from earlier work
hAR•NADPH = target: T3, hAR•NADPH (Homo sapiens, UniProt P15121); experiment: Fluorescence titration of inhibitor binding to the hAR•NADPH binary complex; conditions: 60 μM NADPH, 5 mM sodium phosphate pH 7.0
T3 construct: hexa-His (cleaved yes); made in house; host or cells: E. coli BL21
Description: as §1
as §2, with “This method was extended for inhibitor (WY 14,643) binding to enzyme•NADPH complex at protein concentration of 0.5 μM in 5 mM sodium phosphate buffer (pH 7.0) containing 100 μM DTT by keeping saturated fixed 60 μM concentration of NADPH and by varying the concentrations of WY 14,643.” left out, “The concentrations of enzyme•NADP^+/NADPH•inhibitor complex formed were measured by quenching of fluorescence protein•NADP^+/NADPH complexes with excitation and emission wavelengths 295 and 365 nm, respectively.” left out

NC(=O)C1=CN([C@@H]2O[C@H](COP(=O)(O)OP(=O)(O)OC[C@H]3O[C@@H](n4cnc5c(N)ncnc54)[C@H](OP(=O)(O)O)[C@@H]3O)[C@@H](O)[C@H]2O)C=CC1 [NADPH]
Kd ([1]; NADPH binding to apo hAR, 5 mM sodium phosphate pH 7.0, 100 μM DTT, read-out: Kd(E-NADPH), equilibrium dissociation constant): 480 ± 40 nM | stoichiometry coefficient (n), E-NADPH ([1]; NADPH binding to apo hAR, 5 mM sodium phosphate pH 7.0): 1.25 ± 0.1

NC(=O)c1ccc[n+]([C@@H]2O[C@H](COP(=O)([O-])OP(=O)(O)OC[C@H]3O[C@@H](n4cnc5c(N)ncnc54)[C@H](OP(=O)(O)O)[C@@H]3O)[C@@H](O)[C@H]2O)c1 [NADP^+]
Kd ([1]; NADP^+ binding to apo hAR, 10 mM Tris-HCl pH 9.0, 100 μM DTT, read-out: Kd(E-NADP^+), equilibrium dissociation constant): 210 ± 10 nM | stoichiometry coefficient (n), E-NADP^+ ([1]; NADP^+ binding to apo hAR, 10 mM Tris-HCl pH 9.0): 1.05 ± 0.03 | fold higher affinity of NADP^+ than NADPH for hAR ([1]; fluorescence quenching data, oxidized vs reduced cofactor): 2 fold

Cc1cccc(Nc2cc(Cl)nc(SCC(=O)O)n2)c1C [WY 14,643, [4-Chloro-6-(2,3-xylidino)-2-pyrimidinylthio]acetic Acid]
Kii (intercept inhibition constant) ([2]; forward reaction (reduction of DL-glyceraldehyde)): 1.8 µM | Ki ([2]; forward reaction (reduction of DL-glyceraldehyde), read-out: Kis (the slope inhibition constant)): 1800 nM | mode of inhibition ([2]; oxidation of benzyl alcohol): pure non-competitive | pattern of inhibition ([2]; with respect to the reduction of DL-glyceraldehyde): classical non-competitive | Kd (hAR•NADP^+; 0.5 μM protein): 104 nM | stoichiometry coefficient (n), binding with hAR•NADP^+ complex (hAR•NADP^+): 1.37 ± 0.05 | increased capacity in oxidization of palmitoyl-coenzyme A (rat livers): 18 fold | Kd (hAR•NADPH; 0.5 μM protein): 110 nM | stoichiometry coefficient (n), binding with hAR•NADPH complex (hAR•NADPH): 1.25 ± 0.06
